Experimental data taken from US10316061B2, “Synthesis of cell penetrating peptides for drug delivery and stem cell applications” (Temple University-Of The Commonwealth System of Higher …, priority 2014, dated 2019).

Legend:
ReNcell VM cells = test: Immunocytochemistry of Tubb3 / MAP2 protein expression in 4-week differentiated ReNcell VM; type: cell-based, human
Description: FIG. 15. Tubb3 Expression Analysis for 4-Week Differentiated ReNcell VM Cells. ReNcell VM cells were treated with neural stem cell culture medium (control), RA (retinoic acid), RA-PepB, C16-PepB, LiCl, and IFNγ (interferon gamma). Tubb3 proteins expressed in the cells were stained as green and cell nuclei were stained with blue (DAPI).
FIG. 16. MAP2 Expression Analysis for 4-Week Differentiated ReNcell VM Cells. ReNcell VM treated with cell culture media (control), RA, RA-PepB, C16-PepB, LiCl, and IFNγ (interferon gamma). MAP2 proteins expressed in the cells were stained as green and cell nuclei were stained with blue (DAPI) FIG. 17. Quantitation of Immunocytochemistry Results for Tubb3/MAP2 Proteins. Relative numbers of the cells expressing Tubb3 and MAP2 proteins were counted and normalized to the control group (*P<0.05, **P<0.01).
The proteins expressed in ReNcell VM cells were visualized with antibodies to study the protein expression by the differentiation of the stem cells in the presence of various soluble factors including RA-PepB and C16-PepB. […] As is shown in FIGS. 15 and 16, Tubb3 or MAP2 expression levels in 4-week differentiated ReNcell VM cells were evaluated via immunocytochemistry (ICC). Protein expression, after antibody staining, was visualized and quantitatively compared by counting Tubb3 or MAP2-positive cells. […]

ReNcell VM = test: RT-qPCR analysis of neural marker gene expression in differentiated ReNcell VM; type: cell-based, human
Description: Differentiated stem cells were cultured for 10 weeks.
The statistical significance was evaluated compared to the control (differentiated ReNcell VM without chemicals) *P<0.05, **P<0.01. GAPDH served as control.
Total mRNA was extracted using mRNA isolation kit (Ambion, Life Technologies) according to the manufacturer's protocol. For higher yield, neural stem cells from eight wells in the same culture plate were homogenized in cell lysis buffer.
Concentrations of mRNA samples were evaluated based on OD260/OD280. mRNA samples were reverse transcribed using reverse transcription kit (Applied Biosystems). PCR amplification of cDNA was carried out using universal PCR master mix (Applied Biosystems) and gene-specific primer sets (Applied Biosystems). These primers included neural stem cell (Nestin, SOX2), immature neuron (Tubb3), mature neuron (MAP2), and astrocyte (GFAP) specific genes. GAPDH was used as a control (house keeping gene). The cycles for RT-PCR consisted of 1 second denaturation at 95° C., 20 second annealing at 60° C. RT-PCR products were analyzed using Mastercycler ep realplex 4 (Eppendorf).

HEK293 cells = test: Live-cell / confocal uptake of ROX-labeled PepA derivatives in HEK293; type: cell-based; conditions: HEK293 cultures; ROX dye label
Description: FIG. 9 is a series of images depicting live-cell uptake of bioactive peptide A (PepA) labeled with the ROX Dye. Bioconjugation with palmitic acid (C16 tail) and/or CPP AAAAEK (PepX) attachments increased cellular uptake in HEK293 cultures.
FIG. 11 is a series of images depicting laser-scanning confocal microscope imaging of bioactive peptide A (PepA) labeled with the ROX dye. Bioconjugation with palmitic acid (C16 tail) and/or CPP AAAAEK (PepX) attachments increased cellular uptake in HEK293 cultures.
Bioactive (model) peptide A (PepA) and CPP X (PepX) were synthesized via solid phase peptide synthesis (SPPS) methods (Suh et al., 2001 Comprehen. Biomat 4: 219-245; Suh et al., 2013 Polymer Adhesion, Friction and Lubrication 283-317 (Wiley)). Fmoc-deprotection was performed with organic bases such as 4-methyl piperidine and DBU in DMF at room temperature. Coupling reaction was performed in the presence of Fmoc-protected amino acids with the mixture of coupling reagents and organic bases (e.g., HBTU, HOBt and DIEA). The cleaved peptide from the resin was purified by HPLC, collected, and stored for future uses. HEK293 and ReNcell VM cell lines were maintained and utilized for cellular experiments. Live-Cell imaging analysis was performed on an Olympus IX81 and IX83-DSU wide-field spinning disc confocal microscope equipped with an LCI Chamlide stage-top incubator unit. […]

[Cl-].[Li+] [LiCl, lithium chloride]
Tubb3 expression compared to the control (ICC, positive cell count) (ReNcell VM cells): statistically significant increases

AAAAEK(A) [PepB]
neuronal differentiation by qRT-PCR (FIGS. 12 and 13) (ReNcell VM; 1 to 4 weeks of differentiation, GAPDH control): increased neuronal differentiations
live-cell uptake (FIG. 9) (HEK293 cells): increased cellular uptake of multiple peptides in a synergistic manner

CC1=C(/C=C/C(C)=C/C=C/C(C)=C/C(=O)O)C(C)(C)CCC1 [RA, Retinoic acid]
cytotoxicity in differentiation culture (FIG. 6) (ReNcell VM; differentiated stem cells cultured for 10 weeks): Highly cytotoxic; low cell count among results
